{"source": "patent US7829118B1", "about": "“Modified hyaluronic acid polymer compositions and related methods” (Carbylan Biosurgery, Inc., priority 2009, dated 2010)", "tested_on": "Femoral Cartilage (medial femoral condyle) of goat stifle joint", "test": "Modified Mankin scoring of femoral cartilage after intra-articular injection in goats (Example 34)", "assay_type": "in vivo", "settings": "for Total Mankin Score / Mankin Score: Tide Mark Integrity / Mankin Score: Cells / Mankin Score: Safranin-O Stain / Mankin Score: Structure: RFC", "protocol": "A lightly crosslinked hydrogel prepared by reaction of vinyl-sulfone-modified hyaluronic acid with PEG-dithiol (HA-VS-PEG-(SH)2), containing the corticosteroid, triamcinolone acetonide, was injected into the intraarticular space of the stifle joint of female goats. Morphological, synovial fluid and histological examinations were conducted to evaluate local and systemic effects of such injections. Details of the study are provided below.\nAll test materials were stored at room temperature prior to use. For each Test or Control Material, a 1.5 ml dosage was prepared for each individual intra-articular injection.\nStudy design was as follows.\nThe basic procedure for injection was identical for all subjects. All injections were performed under strict asepsis. The animals were anesthetized with an intravenous injection of Diazepam (0.1-0.5 mg/kg) and Ketamine (4.4-7.5 mg/kg) to effect. Each knee was physically examined for drawer, range of motion, swelling, temperature, crepitus, patella tracking, and valgus/varus abnormalities\nAll injections were conducted utilizing routine aseptic techniques. The left and right stifles were prepared for injection by clipping the areas, then cleansing them with chlorohexidine scrub. The animal was placed in dorsal recumbency. The right stifle was cleansed with chlorohexidine scrub alternating with 70% isopropyl alcohol three times and painted with iodine solution.\nA standard technique was used to inject each stifle joint. A 2-inch by 21gauge sized sterile needle was introduced into the intra-articular space via an anteromedial approach. The lateral intercondylar notch wall of the medial femoral condyle was felt and the needle backed slightly off. 1.5 ml of the appropriate Test Material was injected into the right joint. The injection needle was removed and pressure was maintained on the injection site. The injected stifle joint was then cycled 20-times through a full range of motion. Immediately following this, the left stifle joint was cleansed with chlorohexidine scrub alternating with 70% isopropyl alcohol three times and painted with iodine solution and 1.5 ml of the Control Material was injected into the left stifle joint in a similar manner as described above for the right stifle. The injection needle was removed and pressure maintained on the injection site. The injected stifle joint was then cycled 20-times through a full range of motion.\nNecropsy: Animals were humanely sacrificed at either 14 days or 28 days day post initial injection with an intravenous injection consisting of Diazepam 0.22 mg/kg and Ketamine 10 mg/kg for induction of general anesthesia. Following this, the anesthetized animals were given an IV overdose of concentrated potassium chloride (KCl) until the cardiac arrest had been verified.\nImmediately after dissection and following gross joint surface evaluation a sagital section of each joint was cut through the medial femoral condyle (MFC). These sections were placed individually in 10% neutral buffered formalin. The fixed tissue was shipped by overnight carrier to Premier Laboratories for processing. The right and left MFC sections were processed using standard histological techniques and stained with hematoxylin and eosin (H&E) and Safranin-O (SAF-O) with a fast green counter stain. The slides from the MFC sections were evaluated by the Mankin Scoring System for osteoarthritis as described in Table 12.", "key": {"[1]": {"settings": "Group 3, 2mg/ml, 14 day evaluation, MEAN"}, "[2]": {"settings": "Group 7, 2mg/ml, 28 day evaluation, MEAN"}, "[3]": {"settings": "Group 4, 8mg/ml, 14 day evaluation, MEAN"}, "[4]": {"settings": "Group 8, 8mg/ml, 28 day evaluation, MEAN, animal that died prematurely not included"}}, "note": "“And” between values parts separate entries of the source, which are not always exact repeats. Identical values can stand only once.", "data": [{"smiles": "CC1(C)O[C@@H]2C[C@H]3[C@@H]4CCC5=CC(=O)C=C[C@]5(C)[C@@]4(F)[C@@H](O)C[C@]3(C)[C@]2(C(=O)CO)O1", "note": "[Triamcinolone Acetonide, triamcinolone acetonide]", "values": [{"measurement": "loss of Safranin O staining intensity portion of the modified Mankin score compared to either Groups 5 or 6", "setting": "Day 28, Groups 7 and 8 (2 and 8 mg/ml)", "value": "mild increase"}, {"measurement": "change in modified Mankin scores from Day 14 to Day 28", "setting": "goat stifle, 1.5 ml intra-articular", "value": "increase"}]}, {"smiles": "CC1(C)O[C@@H]2C[C@H]3[C@@H]4CCC5=CC(=O)C=C[C@]5(C)[C@@]4(F)[C@@H](O)C[C@]3(C)[C@]2(C(=O)CO)O1", "note": "[Triamcinolone Acetonide 2mg/ml, triamcinolone acetonide]", "values": [{"measurement": "Total Mankin Score", "setting": "Group 3, 2mg/ml, 14 day evaluation, right stifle 1.5 ml intra-articular, individual goats, maximal 14, normal 0", "value": "4.0 and 7.0 and 8.0"}, {"measurement": "Mankin Score: Tide Mark Integrity", "setting": "Group 3, 2mg/ml, 14 day evaluation, right stifle 1.5 ml intra-articular, individual goats, score 0-1", "value": 0.0}, {"measurement": "Mankin Score: Cells", "setting": "Group 3, 2mg/ml, 14 day evaluation, right stifle 1.5 ml intra-articular, individual goats, score 0-3", "value": "0.0 and 1.0 (2×)"}, {"measurement": "Mankin Score: Safranin-O Stain", "setting": "Group 3, 2mg/ml, 14 day evaluation, right stifle 1.5 ml intra-articular, individual goats, score 0-4", "value": "4.0 and 2.0 and 3.0"}, {"measurement": "Mankin Score: Structure", "setting": "Group 3, 2mg/ml, 14 day evaluation, right stifle 1.5 ml intra-articular, individual goats, score 0-6", "value": "0.0 and 4.0 (2×)"}, {"measurement": "Mankin Score: Cells", "setting": "[1]", "value": 0.7}, {"measurement": "Mankin Score: Safranin-O Stain", "setting": "[1]", "value": 3.0}, {"measurement": "Mankin Score: Structure", "setting": "[1]", "value": 2.7}, {"measurement": "Mankin Score: Tide Mark Integrity", "setting": "[1]", "value": 0.0}, {"measurement": "Total Mankin Score", "setting": "[1]", "value": 6.3}, {"measurement": "Total Mankin Score", "setting": "Group 7, 2mg/ml, 28 day evaluation, right stifle 1.5 ml intra-articular, individual goats, maximal 14, normal 0", "value": "6.0 and 9.0 and 10.0"}, {"measurement": "Mankin Score: Tide Mark Integrity", "setting": "Group 7, 2mg/ml, 28 day evaluation, right stifle 1.5 ml intra-articular, individual goats, score 0-1", "value": 0.0}, {"measurement": "Mankin Score: Cells", "setting": "Group 7, 2mg/ml, 28 day evaluation, right stifle 1.5 ml intra-articular, individual goats, score 0-3", "value": "2.0 (2×) and 3.0"}, {"measurement": "Mankin Score: Safranin-O Stain", "setting": "Group 7, 2mg/ml, 28 day evaluation, right stifle 1.5 ml intra-articular, individual goats, score 0-4", "value": "4.0 and 3.0 (2×)"}, {"measurement": "Mankin Score: Structure", "setting": "Group 7, 2mg/ml, 28 day evaluation, right stifle 1.5 ml intra-articular, individual goats, score 0-6", "value": "0.0 and 4.0 (2×)"}, {"measurement": "Mankin Score: Cells", "setting": "[2]", "value": 2.3}, {"measurement": "Mankin Score: Safranin-O Stain", "setting": "[2]", "value": 3.3}, {"measurement": "Mankin Score: Structure", "setting": "[2]", "value": 2.7}, {"measurement": "Mankin Score: Tide Mark Integrity", "setting": "[2]", "value": 0.0}, {"measurement": "Total Mankin Score", "setting": "[2]", "value": 8.3}]}, {"smiles": "CC1(C)O[C@@H]2C[C@H]3[C@@H]4CCC5=CC(=O)C=C[C@]5(C)[C@@]4(F)[C@@H](O)C[C@]3(C)[C@]2(C(=O)CO)O1", "note": "[Triamcinolone Acetonide 8mg/ml, triamcinolone acetonide]", "values": [{"measurement": "Total Mankin Score", "setting": "Group 4, 8mg/ml, 14 day evaluation, right stifle 1.5 ml intra-articular, individual goats, maximal 14, normal 0", "value": "9.0 and 3.0 and 4.0"}, {"measurement": "Mankin Score: Tide Mark Integrity", "setting": "Group 4, 8mg/ml, 14 day evaluation, right stifle 1.5 ml intra-articular, individual goats, score 0-1", "value": 0.0}, {"measurement": "Mankin Score: Cells", "setting": "Group 4, 8mg/ml, 14 day evaluation, right stifle 1.5 ml intra-articular, individual goats, score 0-3", "value": "1.0 and 0.0 (2×)"}, {"measurement": "Mankin Score: Safranin-O Stain", "setting": "Group 4, 8mg/ml, 14 day evaluation, right stifle 1.5 ml intra-articular, individual goats, score 0-4", "value": "3.0 (2×) and 4.0"}, {"measurement": "Mankin Score: Structure", "setting": "Group 4, 8mg/ml, 14 day evaluation, right stifle 1.5 ml intra-articular, individual goats, score 0-6", "value": "5.0 and 0.0 (2×)"}, {"measurement": "Mankin Score: Cells", "setting": "[3]", "value": 0.3}, {"measurement": "Mankin Score: Safranin-O Stain", "setting": "[3]", "value": 3.3}, {"measurement": "Mankin Score: Structure", "setting": "[3]", "value": 1.7}, {"measurement": "Mankin Score: Tide Mark Integrity", "setting": "[3]", "value": 0.0}, {"measurement": "Total Mankin Score", "setting": "[3]", "value": 5.3}, {"measurement": "Total Mankin Score", "setting": "Group 8, 8mg/ml, 28 day evaluation, right stifle 1.5 ml intra-articular, individual goats (3588 RFC* died prematurely, 19 days), maximal 14, normal 0", "value": "12.0 and 6.0"}, {"measurement": "Total Mankin Score", "setting": "Group 8, 8mg/ml, 28 day evaluation, right stifle 1.5 ml intra-articular, individual goats (3588 RFC* died prematurely, 19 days), maximal 14, normal 0, listed as Triamcinolone Acetonide 8mg/m1", "value": 10.0}, {"measurement": "Mankin Score: Tide Mark Integrity", "setting": "Group 8, 8mg/ml, 28 day evaluation, right stifle 1.5 ml intra-articular, individual goats (3588 RFC* died prematurely, 19 days), score 0-1", "value": 0.0}, {"measurement": "Mankin Score: Cells", "setting": "Group 8, 8mg/ml, 28 day evaluation, right stifle 1.5 ml intra-articular, individual goats (3588 RFC* died prematurely, 19 days), score 0-3", "value": "3.0 and 1.0"}, {"measurement": "Mankin Score: Cells", "setting": "Group 8, 8mg/ml, 28 day evaluation, right stifle 1.5 ml intra-articular, individual goats (3588 RFC* died prematurely, 19 days), score 0-3, listed as Triamcinolone Acetonide 8mg/m1", "value": 3.0}, {"measurement": "Mankin Score: Safranin-O Stain", "setting": "Group 8, 8mg/ml, 28 day evaluation, right stifle 1.5 ml intra-articular, individual goats (3588 RFC* died prematurely, 19 days), score 0-4", "value": 4.0}, {"measurement": "Mankin Score: Safranin-O Stain", "setting": "Group 8, 8mg/ml, 28 day evaluation, right stifle 1.5 ml intra-articular, individual goats (3588 RFC* died prematurely, 19 days), score 0-4, listed as Triamcinolone Acetonide 8mg/m1", "value": 3.0}, {"measurement": "Mankin Score: Structure", "setting": "Group 8, 8mg/ml, 28 day evaluation, right stifle 1.5 ml intra-articular, individual goats (3588 RFC* died prematurely, 19 days), score 0-6", "value": "5.0 and 1.0"}, {"measurement": "Mankin Score: Structure", "setting": "Group 8, 8mg/ml, 28 day evaluation, right stifle 1.5 ml intra-articular, individual goats (3588 RFC* died prematurely, 19 days), score 0-6, listed as Triamcinolone Acetonide 8mg/m1", "value": 4.0}, {"measurement": "Mankin Score: Cells", "setting": "[4]", "value": 2.0}, {"measurement": "Mankin Score: Safranin-O Stain", "setting": "[4]", "value": 4.0}, {"measurement": "Mankin Score: Structure", "setting": "[4]", "value": 3.0}, {"measurement": "Mankin Score: Tide Mark Integrity", "setting": "[4]", "value": 0.0}, {"measurement": "Total Mankin Score", "setting": "[4]", "value": 9.0}]}]}
